7 molecules from patent publication US7718645B2, “Substituted bicyclolactam compounds” (Pfizer Inc., priority 2007, dated 2010) can be followed below.

pIC50: −log10 of the molar value. Like-named read-outs stand apart in the source and are kept apart here.

This assay has as its target T1, Human full-length diacylglycerol:acylCoA acyltransferase 1 (DGAT-1) (Homo sapiens, UniProt O75907).
T1 construct: Human full-length diacylglycerol:acylCoA acyltransferase 1 (DGAT-1) was expressed in Sf9 insect cells; made in house; host or cells: Sf9 insect cells (baculovirus)
T1 sequence (O75907 1-488): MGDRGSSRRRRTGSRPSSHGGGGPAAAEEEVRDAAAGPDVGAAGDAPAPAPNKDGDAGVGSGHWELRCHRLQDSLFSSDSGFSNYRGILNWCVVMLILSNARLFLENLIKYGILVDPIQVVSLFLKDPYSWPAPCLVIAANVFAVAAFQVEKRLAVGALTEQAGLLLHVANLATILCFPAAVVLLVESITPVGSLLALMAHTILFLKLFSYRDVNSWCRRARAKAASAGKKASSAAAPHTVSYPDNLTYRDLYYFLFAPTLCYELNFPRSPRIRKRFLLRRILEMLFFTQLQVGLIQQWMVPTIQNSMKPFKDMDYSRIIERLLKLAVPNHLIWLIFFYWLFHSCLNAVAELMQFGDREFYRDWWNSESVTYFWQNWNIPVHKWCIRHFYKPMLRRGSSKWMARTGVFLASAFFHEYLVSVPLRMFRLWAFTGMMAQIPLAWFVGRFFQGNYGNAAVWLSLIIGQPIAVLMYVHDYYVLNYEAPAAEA
In words: In vitro assay for DGAT-1 inhibition ([14C]decanoylCoA, Sf9 membrane fraction). The format is biochemical. As for the experimental part:
Human full-length diacylglycerol:acylCoA acyltransferase 1 (DGAT-1) was expressed in Sf9 insect cells which are then lysed and a crude membrane fraction (105,000×g pellet) was prepared.
The cells were cultured as follows. Sf9 cells (20 L) were infected with 4 mL of DGAT1 Baculovirus Infected Insect Cells (BIIC) for 72 hours in a Wave Bioreactor System 20/50P (Wave Biotec/GE Healthcare).
Crude DGAT-1 microsomes were prepared as follows. Cell pellets were washed once with ice-cold Dulbecco's phosphate-buffered saline. Cells were collected in tabletop centrifuge (Beckman GS-6KR), 15 minutes, 2000×g, 4° C. Twenty (20) mL of ice-cold Microsome Buffer (MB) was added per 5 g of cell pellet. The suspension was passed through a microfluidizer 3 times (18K psi). The lysate was transferred to centrifuge tubes and centrifuged for 20 minutes at 5000×g (Beckman-Coulter, Inc. Allegra® 64R High-Speed Refrigerated Benchtop Centrifuge, F0650 rotor) at 4° C. The supernatant was transferred to Ultracentrifuge tubes and centrifuged at […] for 1 hr in a Beckman Ti-45 rotor, 4° C. The supernatant fluid was discarded. The pellet was resuspended in 70 mL of MB by sonication. The microsome concentration was determined using Bio-Rad Protein DC Protein Assay. The microsomes were filter sterilized with a 0.22 μm filter. The samples were portioned, flash frozen and stored at −80° C.
Inhibitors in DMSO were pre-incubated with membranes before initiating the DGAT-1 reaction by the addition of decanoylCoA. […] The inhibitors were present at a range of eight concentrations to generate an apparent IC50 for each compound. […] Specifically, the eight concentrations used were 10 μM, 3 μM, 1 μM, 300 nM, 100 nM, 30 nM, 10 nM and 3 nM.
The reactions were allowed to proceed for 1.5 h at room temperature and then terminated by the addition of 10 μl of HCl (0.5 M). Reaction mixtures were neutralized by the addition of 15 μl of tris(hydroxy-methyl)aminomethane (1M, pH 8.0) and then mixed by trituration with 37.5 μl of Microscint™-E (Perkin Elmer).
Where this DGAT-1 inhibition assay was performed on a compound more than once, an inhibition range is also provided for that compound.

Setting [1] is: apparent IC50, eight inhibitor concentrations 10 μM to 3 nM, read-out: IC50.
Where [2] appears, read: inhibition range where the assay was performed on a compound more than once, read-out: IC50 range.

The pIC50 is the negative decadic logarithm of the IC50, by convention in mol/L.

Regarding `C[C@@H]1CN(c2ccc([C@H]3CC[C@H](CC#N)CC3)cc2)C(=O)c2c(N)ncnc2O1` [Example 47, (Trans-4-{4-[(8R)-4-amino-8-methyl-5-oxo-7,8-dihydropyrimido[5,4-f][1,4]oxazepin-6(5H)-yl]phenyl}cyclohexyl)acetonitrile], the pIC50 is, setting by setting: under setting [1], 7.42; under setting [2], 7.32 to 7.52. Take `COC(=O)CC1CC=C(c2ccc(N3CCOc4ncnc(N)c4C3=O)cc2)CC1` (racemic) [Example 52, Methyl(+)-{4-[4-(4-Amino-5-oxo-7,8-dihydropyrimido[5,4-f][1,4]oxazepin-6(5H)-yl)phenyl]cyclohex-3-en-1-yl}acetate]: the negative-log IC50 (pIC50) under setting [1] is 7.07. Consider `CC1COc2ncnc(N)c2C(=O)N1c1ccc(C2CCC(CC(=O)O)CC2)cc1` (centres unmarked) [Example 15, {4-[4-(4-Amino-7-methyl-5-oxo-7,8-dihydro-5H-9-oxa-1,3,6-triaza-benzocyclohepten-6-yl)-phenyl]-cyclohexyl}-acetic acid], for which the negative-log IC50 (pIC50) by setting is: under setting [1], 7.56; under setting [2], 7.11 to 7.87. As to `CCOC(=O)C[C@H]1CC[C@H](c2ccc(N3CC(C)(C)Oc4ncnc(N)c4C3=O)cc2)CC1` [Example 7, ethyl {trans-4-[4-(4-amino-8,8-dimethyl-5-oxo-7,8-dihydropyrimido[5,4-f][1,4]oxazepin-6(5H)-yl)phenyl]cyclohexyl}acetate], the negative logarithm of the IC50 (pIC50) under setting [1] is 6.74. As to `C[C@@H]1CN(c2ccc(C3CCC(CC(N)=O)CC3)c(F)c2)C(=O)c2c(N)ncnc2O1` (stereo partly drawn) [Example 28, (R)-2-(4-(4-(4-amino-8-methyl-5-oxo-7,8-dihydropyrimido[5,4-f][1,4]oxazepin-6(5H)-yl)-2-fluorophenyl)cyclohexyl)acetamide], the pIC50 under setting [1] was 7.95 and the negative-log IC50 (pIC50) under setting [2] was 7.70 to 8.14. For `COC(=O)C[C@H]1CC[C@H](c2ccc(N3CCOc4nc(C)nc(N)c4C3=O)cc2)CC1` [Example 9, methyl {trans-4-[4-(4-amino-2-methyl-5-oxo-7,8-dihydropyrimido[5,4-f][1,4]oxazepin-6(5H)-yl)phenyl]cyclohexyl}acetate], the negative-log IC50 (pIC50) under setting [1] is 6.62. As to `Nc1ncnc2c1C(=O)N(c1ccc(C3CCC(CC(=O)O)CC3)c(F)c1)CCO2` (centres unmarked) [Example 19, 2-(4-(4-(4-amino-5-oxo-7,8-dihydropyrimido[5,4-f][1,4]oxazepin-6(5H)-yl)-2-fluorophenyl)cyclohexyl)acetic acid], the pIC50 (Examples 17-23 table, range of repeated assays, read-out: DGAT-1 IC50 Range) was 7.81 to 8.52 and the pIC50 (Examples 17-23 table, read-out: DGAT-1 IC50) is more than 8.08.
